# Laboratory results as given in US20120329761A1, “USE OF TIGECYCLINE FOR TREATMENT OF CANCER” (UNIVERSITY HEALTH NETWORK, priority 2010, published 2012).
# Tests used:
# [1] = system: Cox-1, Cox-2, Cox-4, grp78, XIAP; test: Immunoblotting of mitochondrially and cytosolically translated proteins; assay type: cell-based, human; conditions: TEX, OCI-AML2 and two AML patients' cells, 2.5 μM and 5 μM
# Experimental: (§1) FIG. 4. […] (A) Cells from TEX, OCI-AML2 and two primary AML patients were treated with increasing concentrations (2.5 μM and 5 μM) of tigecycline for 36 and 48 hours of tigecycline. Total proteins were extracted and analyzed by western blotting for Cox-1, Cox-2, Cox-4, grp78, XIAP, actin and tubulin. (B) TEX and AML patient cells were treated with increasing concentrations (2.5 μM and 5 μM) of tigecycline. Cox-1, Cox-2, and Cox-4 mRNA expression relative 18S was determined by quantitative RT-PCR. Data is shown as mean±SD. (C) TEX cells were treated with increasing concentrations of tigecycline and chloramphenicol (CAP) for 72 hours. Complex I, II and IV enzyme activity relative to citrate synthase activity was determined as described in materials and methods. (D) Cells from TEX, primary AML patients, and normal donors were treated with increasing concentrations of tigecycline. Mitochondrial membrane potential (Δψ) was determined by staining cells with JC-1 dye, and flow cytometry analysis (Red/Green ratio). Reactive oxygen species generation (ROS) was determined by staining with h2-DCFDA and Dihydroethidium (DHE).
# Total cell lysates were prepared from cells as described previously^32. […] Protein concentrations were measured by the DC Protein assay. […]
# primary AML samples = test: Mitochondrial membrane potential, JC-1 dye; assay type: cell-based, human; conditions: three primary AML samples, 5 μM, times preceding onset of cell death
# Experimental: (§2) FIG. 4. Tigecycline decreases mitochondrial Cox-1 protein levels in TEX cells. (A) Cells from TEX, OCI-AML2 and two primary AML patients were treated with increasing concentrations (2.5 μM and 5 μM) of tigecycline for 36 and 48 hours of tigecycline. Total proteins were extracted and analyzed by western blotting for Cox-1, Cox-2, Cox-4, grp78, XIAP, actin and tubulin. (B) TEX and AML patient cells were treated with increasing concentrations (2.5 μM and 5 μM) of tigecycline. Cox-1, Cox-2, and Cox-4 mRNA expression relative 18S was determined by quantitative RT-PCR. Data is shown as mean±SD. (C) TEX cells were treated with increasing concentrations of tigecycline and chloramphenicol (CAP) for 72 hours. Complex I, II and IV enzyme activity relative to citrate synthase activity was determined as described in materials and methods. (D) Cells from TEX, primary AML patients, and normal donors were treated with increasing concentrations of tigecycline. Mitochondrial membrane potential (Δψ) was determined by staining cells with JC-1 dye, and flow cytometry analysis (Red/Green ratio). Reactive oxygen species generation (ROS) was determined by staining with h2-DCFDA and Dihydroethidium (DHE).
# (§3) To measure mitochondrial membrane potential, cells were treated with tigecycline similarly as described above and then washed twice with PBS and incubated with 5 μM of 5,5′,6,6′-tetrachloro-1,1′,3,3′-tetraethyl benzimidazolylcarbocyanine iodide (JC-1, Sigma-Aldrich) for 20 minutes at 37° C. Each sample was then washed twice with 1 mL PBS and resuspended in 500 μL PBS prior to being read on a BD FACSCalibur. Samples were excited at 488 nm and emission was collected at 526 nm (green) and 595 nm (red). Analysis was conducted using FlowJo software (TreeStar Inc). […]
# (§4) During oxidative phosphorylation, the intermediate between oxygen reduction and ATP synthesis is the electrochemical proton gradient, comprised mostly of the mitochondrial membrane potential. […] The effect of tigecycline treatment on the mitochondrial membrane potential as determined by the carbocyanine dye JC-1 was examined. […]
# [2] = system: normal hematopoietic cells; test: Mitochondrial membrane potential, JC-1 dye; assay type: cell-based, human; conditions: normal hematopoietic cells from two G-CSF mobilized normal donors
# Experimental: as §2, §3, §4
# TEX cells [3] = test: Mitochondrial membrane potential, JC-1 dye; assay type: cell-based, human; conditions: 5 μM, times preceding onset of cell death
# Experimental: as §2, §3, §4
# TEX cells [4] = test: ROS generation, DCF-DA and DHE staining; assay type: cell-based, human; conditions: time-points up to 24 hours
# Experimental: as §1
# A byproduct of the mitochondrial enzyme activities of the electron transport chain is the generation of reactive oxygen species (ROS). […] Therefore, the role of tigecycline on ROS generation in leukemia cells by analyzing hydrogen peroxide ions (H2O2) using a dichlorofluorescein dye (DCF-DA), and superoxide anions using dihydroethidium (DHE) was examined.
# [5] = PK study in mice, single dose i.p.; assay type: in vivo; conditions: mouse, serum, ip, single dose 50 mg/kg i.p.
# [6] = system: primary AML patient samples; test: Methylcellulose colony formation assay; assay type: cell-based, human; conditions: 5 μM, primary AML n=7, colonies at 7 days
# Experimental: (§5) FIG. 2. Tigecycline induces cell death and inhibits clonogenic growth in primary AML cells preferential over normal hematopoietic cells. Mononuclear cells from peripheral blood of leukemia patients (blast count >80%) and normal G-CSF expanded donors was treated with increasing concentrations of tigecycline for 48 hours. Cell viability was measured by Annexin-PI flow cytometry staining. Cell viability is expressed as a mean percentage plus or minus SD (n=3) relative to DMSO-treated cells. Mononuclear cells from primary AML patient samples (A, B) and normal peripheral blood cells (C) were plated in methylcelluose with 5 μM of Tigecycline. (D) Colony forming units were counted at 7 days (AML) and 14 days (Normal) post plating. […]
# (§6) To assess clonogenic growth, primary AML cells (1.0×10^5/mL) or granulocyte colony-stimulating factor (G-CSF) mobilized PBSCs (1.0×10^5/mL) were plated in duplicate with increasing concentrations of tigecycline in MethoCult GF H4434 medium (StemCell Technologies, Vancouver, BC) containing 1% methycellulose in IMDM, 30% FCS, 1% bovine serum albumin, 3 U/mL of recombinant human erythropoietin, 10^−4 M of 2-mercaptoethanol, 2 mM of L-glutamine, 50 ng/mL of recombinant human stem cell factor, 10 ng/mL of GM-CSF, and 10 ng/mL of rh IL-3). Seven days (AML samples) or 14 days (normal PBCS) after plating, the number of colonies was counted as previously described^31.
# [7] = system: normal hematopoietic cells; test: Methylcellulose colony formation assay; assay type: cell-based, human; conditions: 5 μM, normal hematopoietic cells n=5, colonies at 14 days
# Experimental: as §5, §6
compound,measurement,setting,value
CN(C)c1cc(NC(=O)CNC(C)(C)C)c(O)c2c1C[C@H]1C[C@H]3[C@H](N(C)C)C(O)=C(C(N)=O)C(=O)[C@@]3(O)C(O)=C1C2=O [tigecycline],expression of nuclear-encoded proteins XIAP or grp78,[1],did not alter
same,expression of Cox subunit proteins,[1]; 36 and 48 hours,"preferential decrease of mitochondrially-translated subunits I and II, over nuclear-translated subunit IV"
same,mitochondrial membrane potential (JC-1 Red/Green ratio),primary AML samples,decreased mitochondrial membrane potential
same,loss of mitochondrial membrane potential,[2],not seen
same,mitochondrial membrane potential (JC-1 Red/Green ratio),TEX cells [3],decreased mitochondrial membrane potential
same,ROS generation,TEX cells [4],no observed increase in ROS generation
same,Tmax,[5],~0.5 h
same,half-life,[5],~4.5 h
same,reduction of clonogenic growth,[6],93±4%
same,reduction of clonogenic growth,[7],34±5%
